Like-named read-outs stand apart in the source and are kept apart here.
How the values were obtained:
Type in all cases: in vivo
Phytophthora infestans = assay: whole plant or invertebrate; conditions: Phytophthora infestans, 72 h; for pest or weed control at 0.005 ppm: application rate 0.005 ppm a.i.; for pest or weed control at 0.01 ppm: application rate 0.01 ppm a.i.; for pest or weed control at 0.0025 ppm: application rate 0.0025 ppm a.i.
Sphaerotheca fuliginea = assay: Sphaerotheca test (cucumbers)/preventive
From the text: (§1) A synergistic effect of fungicides is always present when the fungicidal activity of the active compound combinations exceeds the total of the activities of the active compounds when applied individually. The expected activity for a given combination of two active compounds can be calculated as follows (cf. Colby, S. R., “Calculating Synergistic and Antagonistic Responses of Herbicide Combinations”, Weeds 1967, 15, 20-22):
(§2) If • X is the efficacy when active compound A is applied at an application rate of m ppm (or g/ha), • Y is the efficacy when active compound B is applied at an application rate of n ppm (or g/ha), • E is the efficacy when the active compounds A and B are applied at application rates of m and n ppm (or g/ha), respectively, and
Sphaerotheca Test (Cucumbers)/Preventive • Solvent: 24.5 parts by weight of acetone • 24.5 parts by weight of dimethylacetamide • Emulsifier: 1 part by weight of alkylaryl polyglycol ether
(§3) To produce a suitable preparation of active compound, 1 part by weight of active compound is mixed with the stated amounts of solvent and emulsifier, and the concentrate is diluted with water to the desired concentration.
(§4) To test for preventive activity, young plants are sprayed with the preparation of active compound at the stated rate of application. After the spray coating has dried on, the plants are inoculated with an aqueous spore suspension of Sphaerotheca fuliginea. The plants are then placed in a greenhouse at approximately 23° C. and a relative atmospheric humidity of approximately 70%.
The test is evaluated 7 days after the inoculation. 0% means an efficacy which corresponds to that of the untreated control, while an efficacy of 100% means that no disease is observed.

Venturia inaequalis = assay: Venturia test (apples)/preventive; conditions: Venturia inaequalis, 240 h, read-out: Efficacy in % found; for pest or weed control at 50 ppm: application rate 50 ppm a.i.; for pest or weed control at 100 ppm: application rate 100 ppm a.i.
From the text: as §1, §2
Venturia test (apples)/preventive • Solvent: 24.5 parts by weight of acetone • 24.5 parts by weight of dimethylacetamide • Emulsifier: 1 part by weight of alkylaryl polyglycol ether
as §3
To test for preventive activity, young plants are sprayed with the preparation of active compound at the stated rate of application. After the spray coating has dried on, the plants are inoculated with an aqueous conidia suspension of the causal agent of apple scab (Venturia inaequalis) and then remain for 1 day in an incubation cabinet at approximately 20° C. and a relative atmospheric humidity of 100%.
The plants are then placed in a greenhouse at approximately 21° C. and a relative atmospheric humidity of approximately 90%.
The test is evaluated 10 days after the inoculation. 0% means an efficacy which corresponds to that of the untreated control, while an efficacy of 100% means that no disease is observed.

Alternaria solani = assay: Alternaria test (tomatoes)/preventive; conditions: Alternaria solani, 72 h, read-out: Efficacy in % found; for pest or weed control at 25 ppm: application rate 25 ppm a.i.; for pest or weed control at 100 ppm: application rate 100 ppm a.i.
From the text: as §1, §2
Alternaria Test (Tomatoes)/Preventive • Solvent: 24.5 parts by weight of acetone • 24.5 parts by weight of dimethylacetamide • Emulsifier: 1 part by weight of alkylaryl polyglycol ether
as §3
as §4, with “Alternaria solani.” for “Sphaerotheca fuliginea.”, “an incubation cabinet” for “a greenhouse”, “20°” for “23°”, “100%.” for “approximately 70%.”
The test is evaluated 3 days after the inoculation. 0% means an efficacy which corresponds to that of the untreated control while an efficacy of 100% means that no disease is observed.

[1] = read-out: Efficacy in % found, Table 3
[2] = read-out: Efficacy in % found, Table 4
[3] = read-out: Efficacy in % found, Table 5
[4] = read-out: Efficacy in % found, Table 6
[5] = Table 7, application rate 100 ppm a.i.

SMILES | pest or weed control at 0.005 ppm (Phytophthora infestans; [2]) [%] | pest or weed control at 0.01 ppm (Phytophthora infestans; [2]) [%] | pest or weed control at 0.0025 ppm (Phytophthora infestans; [3]) [%] | pest or weed control at 0.0025 ppm (Phytophthora infestans; [4]) [%] | Efficacy in % found (Sphaerotheca fuliginea; [5]) [%] | pest or weed control at 50 ppm (Venturia inaequalis; Table 10) [%] | pest or weed control at 100 ppm (Venturia inaequalis; Table 10) [%] | pest or weed control at 50 ppm (Venturia inaequalis; Table 11) [%] | pest or weed control at 100 ppm (Venturia inaequalis; Table 11) [%] | pest or weed control at 100 ppm (Venturia inaequalis; Table 12) [%] | pest or weed control at 100 ppm (Venturia inaequalis; Table 13) [%] | pest or weed control at 25 ppm (Alternaria solani; Table 1) [%] | pest or weed control at 100 ppm (Alternaria solani; Table 2) [%] | other results
CS(=O)(=O)Oc1ccccc1C1CC(c2csc(C3CCN(C(=O)Cn4nc(C(F)F)cc4C(F)F)CC3)n2)=NO1 (stereo not shown) [(I-1), 2-{3-[2-(1-{[3,5-bis(difluoromethyl)-1H-pyrazol-1-yl]acetyl}piperidin-4-yl)-1,3-thiazol-4-yl]-4,5-dihydro-1,2-oxazol-5-yl}phenyl methanesulfonate] | 67 | 77 | 52 | 48 | 19 | 0 | 0 | 4 | 13 | 21 | 0 | 20 | 34 | pest or weed control at 0.005 ppm (Phytophthora infestans; [1]): 82%; Efficacy in % found (Sphaerotheca fuliginea; Table 8, application rate 100 ppm a.i.): 0%; Efficacy in % found (Sphaerotheca fuliginea; Table 9, application rate 100 ppm a.i.): 38%
CS(=O)(=O)Oc1cccc(Cl)c1C1CC(c2csc(C3CCN(C(=O)Cn4nc(C(F)F)cc4C(F)F)CC3)n2)=NO1 (stereo not shown) [(I-3), 2-{3-[2-(1-{[3,5-bis(difluoromethyl)-1H-pyrazol-1-yl]acetyl}piperidin-4-yl)-1,3-thiazol-4-yl]-4,5-dihydro-1,2-oxazol-5-yl}-3-chlorophenyl methanesulfonate] | 5 | 28 | 59 | 79 | 43 | 0 | 0 | 0 | 15 | 0 | 0 | 0 | 36 | pest or weed control at 0.0025 ppm (Phytophthora infestans; [1]): 65%; pest or weed control at 0.01 ppm (Phytophthora infestans; [3]): 87%; Efficacy in % found (Sphaerotheca fuliginea; Table 8, application rate 50 ppm a.i.): 19%; Efficacy in % found (Sphaerotheca fuliginea; Table 9, application rate 50 ppm a.i.): 29%; pest or weed control at 25 ppm (Alternaria solani; Table 2): 30%

— US12102087B2 (priority 2012, dated 2024)
